Laboratory results published in PubChem BioAssay AID330 (DTP/NCI, 2004).
Where “and” joins values, the source holds several entries; their conditions need not be identical. Equal values may be shown once. Inconclusive results and toxic doses are left out.

Test system: P388 leukemia ip, CD2F1 mice, survival T/C
Experiment: NCI In Vivo Anticancer Drug Screen. Data for tumor model P388 Leukemia (intraperitoneal) in CD2F1 (CDF1) mice
Conditions: endpoint: median survival time, higher = longer survival
Summary of the method: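 Mice carrying the transplanted tumor received test compound or vehicle. Survival was recorded in each group, and the value is the treated-group measurement divided by that of the vehicle-treated control group.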

[1] = dose: 50.0 mg/kg/injection, schedule: Q01DX009 (ip), vehicle: Klucel (hydroxypropylcellulose) (HPC)
[2] = dose: 100.0 mg/kg/injection, schedule: Q01DX009 (ip), vehicle: Klucel (hydroxypropylcellulose) (HPC)
[3] = dose: 200.0 mg/kg/injection, schedule: Q01DX009 (ip), vehicle: Klucel (hydroxypropylcellulose) (HPC)
[4] = dose: 60.0 mg/kg/injection, schedule: Q01DX005 (ip), vehicle: saline with Tween-80
[5] = dose: 50.0 mg/kg/injection, schedule: Q01DX005 (ip), vehicle: saline with Tween-80
[6] = dose: 100.0 mg/kg/injection, schedule: Q01DX005 (ip), vehicle: saline with Tween-80
[7] = dose: 200.0 mg/kg/injection, schedule: Q01DX005 (ip), vehicle: saline with Tween-80
[8] = dose: 120.0 mg/kg/injection, schedule: Q01DX005 (ip), vehicle: saline with Tween-80
[9] = dose: 240.0 mg/kg/injection, schedule: Q01DX005 (ip), vehicle: saline with Tween-80
[10] = dose: 60.0 mg/kg/injection, schedule: Q01DX005 (ip), vehicle: Klucel (hydroxypropylcellulose) (HPC)
[11] = dose: 120.0 mg/kg/injection, schedule: Q01DX005 (ip), vehicle: Klucel (hydroxypropylcellulose) (HPC)
[12] = dose: 240.0 mg/kg/injection, schedule: Q01DX005 (ip), vehicle: Klucel (hydroxypropylcellulose) (HPC)
[13] = dose: 6.25 mg/kg/injection, schedule: Q01DX009 (ip), vehicle: saline with Tween-80
[14] = dose: 12.5 mg/kg/injection, schedule: Q04DX003 (ip), vehicle: saline with Tween-80
[15] = dose: 25.0 mg/kg/injection, schedule: Q04DX003 (ip), vehicle: saline with Tween-80

SMILES: Cc1c2oc3c(C)ccc(C(=O)NC4C(=O)NC(C(C)C)C(=O)N5CCCC5C(=O)N(C)CC(=O)N(C)C(C(C)C)C(=O)OC4C)c3nc-2c(C(=O)NC2C(=O)NC(C(C)C)C(=O)N3CCCC3C(=O)N(C)CC(=O)N(C)C(C(C)C)C(=O)OC2C)c(Cl)c1=O (stereo unspecified)
- T/C (dose: 0.05 mg/kg/injection, schedule: Q01DX009 (ip), vehicle: water): 98 % of control
- T/C (dose: 0.1 mg/kg/injection, schedule: Q01DX009 (ip), vehicle: water): 96 % of control
- T/C (dose: 0.2 mg/kg/injection, schedule: Q01DX009 (ip), vehicle: water): 114 % of control
- T/C (dose: 0.4 mg/kg/injection, schedule: Q01DX009 (ip), vehicle: water): 106 % of control
- T/C (dose: 0.8 mg/kg/injection, schedule: Q01DX009 (ip), vehicle: water): 110 % of control
- T/C (dose: 3.13 mg/kg/injection, schedule: Q01DX009 (ip), vehicle: water): 150 % of control
- T/C (dose: 6.25 mg/kg/injection, schedule: Q01DX009 (ip), vehicle: water): 172 % of control
- T/C (dose: 6.4 mg/kg/injection, schedule: Q01DX009 (ip), vehicle: water): 171 % of control
- T/C (dose: 12.5 mg/kg/injection, schedule: Q01DX009 (ip), vehicle: water): 172 % of control and 243 % of control
- T/C (dose: 25.0 mg/kg/injection, schedule: Q01DX009 (ip), vehicle: water): 101 % of control and 256 % of control

SMILES: COCN1C(=O)CN=C(c2ccccc2)c2cc([N+](=O)[O-])ccc21
- T/C [1]: 100 % of control
- T/C [2]: 101 % of control
- T/C [3]: 98 % of control

SMILES: CN(C)CCN(C)c1cccc2c1C(=O)c1cscc1C2=O
- T/C (dose: 25.0 mg/kg/injection, schedule: Q01DX005 (ip), vehicle: saline): 100 % of control
- T/C (dose: 50.0 mg/kg/injection, schedule: Q01DX005 (ip), vehicle: saline): 100 % of control and 92 % of control

SMILES: CCn1cc(C(=O)O)c(=O)c2nc(S(C)=O)sc21 (stereo unspecified)
- T/C (dose: 15.0 mg/kg/injection, schedule: Q01DX005 (ip), vehicle: saline with Tween-80): 103 % of control
- T/C (dose: 30.0 mg/kg/injection, schedule: Q01DX005 (ip), vehicle: saline with Tween-80): 108 % of control
- T/C [4]: 123 % of control and 97 % of control

SMILES: CCn1c(=O)c2[nH]c(-n3c(Cl)nc4c3c(=O)n(CC)c(=O)n4CC)nc2n(CC)c1=O
- T/C [1]: 101 % of control
- T/C [2]: 98 % of control
- T/C [3]: 120 % of control

SMILES: C=CCc1cc(C(CC)C(CC)c2ccc(OCCN(CC)CC)c(CC=C)c2)ccc1OCCN(CC)CC (stereo unspecified)
- T/C [5]: 95 % of control
- T/C [6]: 98 % of control
- T/C [7]: 101 % of control

SMILES: O=c1[nH]cnc2c1ncn2C1SC(CO)C(O)C1O (stereo unspecified)
- T/C (dose: 25.0 mg/kg/injection, schedule: Q01DX005 (ip), vehicle: Klucel (hydroxypropylcellulose) (HPC)): 100 % of control
- T/C (dose: 50.0 mg/kg/injection, schedule: Q01DX005 (ip), vehicle: Klucel (hydroxypropylcellulose) (HPC)): 108 % of control
- T/C (dose: 100.0 mg/kg/injection, schedule: Q01DX005 (ip), vehicle: Klucel (hydroxypropylcellulose) (HPC)): 101 % of control
- T/C (dose: 200.0 mg/kg/injection, schedule: Q01DX005 (ip), vehicle: Klucel (hydroxypropylcellulose) (HPC)): 101 % of control
- T/C (dose: 400.0 mg/kg/injection, schedule: Q01DX005 (ip), vehicle: Klucel (hydroxypropylcellulose) (HPC)): 92 % of control

SMILES: O=c1c2ccccc2nc(-c2cccc([N+](=O)[O-])c2)n1O
- T/C [4]: 89 % of control
- T/C [8]: 100 % of control
- T/C [9]: 91 % of control

SMILES: COP(=O)(CC(=O)CCCCCO)OC
- T/C (dose: 60.0 mg/kg/injection, schedule: Q01DX005 (ip), vehicle: saline): 114 % of control
- T/C (dose: 120.0 mg/kg/injection, schedule: Q01DX005 (ip), vehicle: saline): 107 % of control
- T/C (dose: 240.0 mg/kg/injection, schedule: Q01DX005 (ip), vehicle: saline): 107 % of control

SMILES: CCOc1nc(N)nc(C)c1N=Nc1ccccc1OC
- T/C [10]: 103 % of control
- T/C [11]: 100 % of control
- T/C [12]: 100 % of control

SMILES: CCC[CH2][Sn]1([CH2]CCC)[O]C(=O)CSC(=S)SCC(=O)[O]1
- T/C (dose: 1.56 mg/kg/injection, schedule: Q01DX009 (ip), vehicle: saline): 90 % of control
- T/C (dose: 3.12 mg/kg/injection, schedule: Q01DX009 (ip), vehicle: saline): 92 % of control
- T/C [13]: 116 % of control
- T/C (dose: 6.25 mg/kg/injection, schedule: Q01DX009 (ip), vehicle: saline): 89 % of control

SMILES: COc1ccc(/C=C2/C(=O)N(c3ccccc3)N=C2C)c(OC)c1
- T/C (dose: 30.0 mg/kg/injection, schedule: Q01DX005 (ip), vehicle: Klucel (hydroxypropylcellulose) (HPC)): 91 % of control
- T/C [10]: 88 % of control and 95 % of control
- T/C [11]: 94 % of control
- T/C [12]: 86 % of control

SMILES: CNCCCc1cc(-c2ccc([N+](=O)[O-])cc2)n[nH]1
- T/C (dose: 100.0 mg/kg/injection, schedule: Q04DX002 (ip), vehicle: Klucel (hydroxypropylcellulose) (HPC)): 100 % of control
- T/C (dose: 200.0 mg/kg/injection, schedule: Q04DX002 (ip), vehicle: Klucel (hydroxypropylcellulose) (HPC)): 100 % of control

SMILES: CCOC(=O)c1c(Cl)c(CC)c(N=[N+]=[N-])n2c1nc1ccccc12
- T/C [4]: 101 % of control
- T/C [8]: 101 % of control

SMILES: NCCc1ccc(O)c(O)c1
- T/C (dose: 1.5 mg/kg/injection, schedule: Q01DX009 (ip), vehicle: saline): 100 % of control and 96 % of control
- T/C (dose: 15.0 mg/kg/injection, schedule: Q01DX009 (ip), vehicle: saline): 99 % of control and 100 % of control
- T/C (dose: 25.0 mg/kg/injection, schedule: Q01DX009 (ip), vehicle: saline): 108 % of control
- T/C (dose: 50.0 mg/kg/injection, schedule: Q01DX009 (ip), vehicle: other): 101 % of control
- T/C (dose: 50.0 mg/kg/injection, schedule: Q01DX009 (ip), vehicle: saline): 107 % of control and 108 % of control
- T/C (dose: 100.0 mg/kg/injection, schedule: Q01DX009 (ip), vehicle: other): 83 % of control
- T/C (dose: 100.0 mg/kg/injection, schedule: Q01DX009 (ip), vehicle: saline): 101 % of control and 108 % of control
- T/C (dose: 150.0 mg/kg/injection, schedule: Q01DX009 (ip), vehicle: saline): 123 % of control
- T/C (dose: 200.0 mg/kg/injection, schedule: Q01DX009 (ip), vehicle: other): 90 % of control
- T/C (dose: 200.0 mg/kg/injection, schedule: Q01DX009 (ip), vehicle: saline): 112 % of control and 115 % of control
- T/C (dose: 300.0 mg/kg/injection, schedule: Q01DX009 (ip), vehicle: saline): 92 % of control
- T/C (dose: 400.0 mg/kg/injection, schedule: Q01DX009 (ip), vehicle: other): 83 % of control
- T/C (dose: 400.0 mg/kg/injection, schedule: Q01DX009 (ip), vehicle: saline): 99 % of control and 121 % of control
- T/C (dose: 600.0 mg/kg/injection, schedule: Q01DX009 (ip), vehicle: saline): 153 % of control

SMILES: O=C(C=C(C(F)(F)F)C(F)(F)F)c1ccccc1Cl
- T/C [13]: 110 % of control
- T/C (dose: 12.5 mg/kg/injection, schedule: Q01DX009 (ip), vehicle: saline with Tween-80): 150 % of control
- T/C [14]: 113 % of control
- T/C [15]: 118 % of control

SMILES: CC1(C)N=C(N)N=C(N)N1c1cccc(CC(=O)Nc2ccccc2)c1
- T/C (dose: 12.5 mg/kg/injection, schedule: Q01DX009 (ip), vehicle: saline sonified): 95 % of control
- T/C [14]: 109 % of control
- T/C (dose: 25.0 mg/kg/injection, schedule: Q01DX009 (ip), vehicle: saline sonified): 95 % of control
- T/C [15]: 104 % of control
- T/C (dose: 50.0 mg/kg/injection, schedule: Q01DX009 (ip), vehicle: saline sonified): 90 % of control
- T/C (dose: 50.0 mg/kg/injection, schedule: Q04DX003 (ip), vehicle: saline with Tween-80): 109 % of control

SMILES: N#CC1C(=O)NC(=S)NC1c1ccc(C2CC(=O)NC(=S)N2)cc1 (stereo unspecified)
- T/C (dose: 50.0 mg/kg/injection, schedule: Q01DX009 (ip), vehicle: saline with Tween-80): 104 % of control
- T/C (dose: 100.0 mg/kg/injection, schedule: Q01DX009 (ip), vehicle: saline with Tween-80): 105 % of control
- T/C (dose: 200.0 mg/kg/injection, schedule: Q01DX009 (ip), vehicle: saline with Tween-80): 106 % of control

SMILES: COc1ccc(C(=O)CCc2cccc(NC(=O)CCl)c2)cc1
- T/C [4]: 91 % of control
- T/C [8]: 100 % of control
- T/C [9]: 102 % of control

SMILES: CC1([N+](=O)[O-])C(=O)C2(N3CCOCC3)CCCC2C1c1ccccc1 (stereo unspecified)
- T/C [10]: 99 % of control
- T/C [11]: 96 % of control
- T/C [12]: 90 % of control

SMILES: C=CCOC(=O)C(NC(=O)OCCCC)NC(=O)OCCCC
- T/C [5]: 103 % of control
- T/C [6]: 100 % of control
- T/C [7]: 98 % of control
